Assay results: ChEMBL document CHEMBL1147440, “Pyrazino[1,2-a]indoles as novel high-affinity and selective imidazoline I(2) receptor ligands” (Bioorg Med Chem Lett, 2004)

Target: T1, Adrenergic receptor alpha-2 (Rattus norvegicus, UniProt P22086+P19328+P22909)
T1 sequence (P22086 whole entry): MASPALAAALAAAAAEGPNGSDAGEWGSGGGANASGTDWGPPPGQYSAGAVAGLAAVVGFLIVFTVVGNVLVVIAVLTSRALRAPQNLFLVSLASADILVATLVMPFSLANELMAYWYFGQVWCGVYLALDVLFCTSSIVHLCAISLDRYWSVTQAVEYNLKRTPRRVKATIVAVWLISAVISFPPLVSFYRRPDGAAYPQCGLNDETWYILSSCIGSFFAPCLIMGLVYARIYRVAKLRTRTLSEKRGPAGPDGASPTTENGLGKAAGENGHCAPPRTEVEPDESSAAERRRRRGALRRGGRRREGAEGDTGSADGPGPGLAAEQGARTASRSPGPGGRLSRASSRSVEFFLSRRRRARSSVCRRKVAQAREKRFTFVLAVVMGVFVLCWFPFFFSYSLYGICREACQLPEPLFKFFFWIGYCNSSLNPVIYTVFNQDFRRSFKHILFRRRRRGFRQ
T1 sequence (P19328 whole entry): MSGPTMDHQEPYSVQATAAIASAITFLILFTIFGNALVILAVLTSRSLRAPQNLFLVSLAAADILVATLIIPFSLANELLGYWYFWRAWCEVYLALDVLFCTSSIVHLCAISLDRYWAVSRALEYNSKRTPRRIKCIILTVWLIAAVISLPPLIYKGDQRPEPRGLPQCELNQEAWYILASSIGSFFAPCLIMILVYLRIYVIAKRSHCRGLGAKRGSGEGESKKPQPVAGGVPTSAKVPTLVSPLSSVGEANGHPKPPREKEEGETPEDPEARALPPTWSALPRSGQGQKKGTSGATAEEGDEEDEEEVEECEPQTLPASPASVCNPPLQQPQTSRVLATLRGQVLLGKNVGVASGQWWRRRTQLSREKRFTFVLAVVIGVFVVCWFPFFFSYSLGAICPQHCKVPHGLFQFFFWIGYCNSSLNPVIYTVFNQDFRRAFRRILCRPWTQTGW
T1 sequence (P22909 whole entry): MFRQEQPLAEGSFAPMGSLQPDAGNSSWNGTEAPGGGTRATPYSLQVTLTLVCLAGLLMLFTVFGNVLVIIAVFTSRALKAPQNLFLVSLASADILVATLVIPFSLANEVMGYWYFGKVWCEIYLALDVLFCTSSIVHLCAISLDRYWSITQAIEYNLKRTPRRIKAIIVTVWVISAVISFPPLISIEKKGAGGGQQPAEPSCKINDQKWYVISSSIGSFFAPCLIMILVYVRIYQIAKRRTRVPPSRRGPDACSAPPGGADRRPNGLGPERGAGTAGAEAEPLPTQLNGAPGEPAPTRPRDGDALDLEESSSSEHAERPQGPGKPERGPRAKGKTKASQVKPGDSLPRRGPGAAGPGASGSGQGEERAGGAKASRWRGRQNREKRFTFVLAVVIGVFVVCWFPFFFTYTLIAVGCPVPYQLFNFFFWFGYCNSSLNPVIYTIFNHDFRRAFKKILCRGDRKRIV
Assay: Displacement of [3H]RX-821002 from alpha-2 adrenergic receptor
Type: protein assay

With `c1ccc2c3c([nH]c2c1)C1=NCCN1CC3` as the compound, how does the Ki read?
The Ki was 1.6 µM.

Which Ki does the source give for `COc1ccc2c(c1)cc1n2CCNC1` here?
Its Ki is 9.55 µM.

Which Ki does the source give for `COc1ccc2cc3n(c2c1)CCNC3` here?
Its Ki is 4.51 µM.

Which Ki does the source give for `c1ccc2c(c1)cc1n2CCNC1` here?
The Ki was 0.516 µM.

Which Ki does the source give for `c1ccc2c(c1)nc1n2CCNC1` here?
Its Ki is 13.4 µM.

With `c1ccc2c3c([nH]c2c1)CNCC3` [TRYPTOLINE] as the compound, how does the Ki read?
The Ki was 1.6 µM.

Target: not listed separately
Assay: Displacement of [3H]2-BFI from imidazoline receptor I-2
Design: species or system Rattus norvegicus

With `COc1ccc2[nH]c3c(c2c1)CCNC3` as the compound, how does the Ki read?
The Ki was 1.64 µM.

With `C1=NCCc2c1[nH]c1ccccc21` as the compound, how does the Ki read?
Its Ki is 0.0073 µM.

For `c1ccc2c3c([nH]c2c1)C1=NCCN1CC3`, which Ki is on record?
The Ki was 9.91 µM.

With `COc1ccc2c(c1)cc1n2CCNC1` as the compound, how does the IC50 read?
Its IC50 is 8.28 µM.

What about the Ki of the same compound?
Its Ki is 0.0062 µM.

With `c1ccc2oc(C3=NCCN3)cc2c1` as the compound, how does the Ki read?
The Ki was less than 0.01 µM.

For `COc1ccc2cc3n(c2c1)CCNC3`, which Ki is on record?
Its Ki is 0.25 µM.

With `c1ccc2c(c1)cc1n2CCNC1` as the compound, how does the Ki read?
The Ki was 0.0065 µM.

Which Ki does the source give for `c1ccc2c(c1)nc1n2CCNC1` here?
Its Ki is 6.79 µM.

For `COc1ccc2[nH]c3c(c2c1)CCN=C3`, which Ki is on record?
Its Ki is 0.48 µM.

With `COc1ccc2c3c([nH]c2c1)C=NCC3` [CGS-19281A] as the compound, how does the Ki read?
The Ki was 0.018 µM.

For `c1ccc2c3c([nH]c2c1)CNCC3` [TRYPTOLINE], which Ki is on record?
The Ki was 0.0094 µM.

Target: 5-hydroxytryptamine receptor 2A (Rattus norvegicus, UniProt P14842)
Assay: Binding affinity for 5-hydroxytryptamine 2A serotonin receptor

Chain of 5-hydroxytryptamine receptor 2A (P14842 whole entry): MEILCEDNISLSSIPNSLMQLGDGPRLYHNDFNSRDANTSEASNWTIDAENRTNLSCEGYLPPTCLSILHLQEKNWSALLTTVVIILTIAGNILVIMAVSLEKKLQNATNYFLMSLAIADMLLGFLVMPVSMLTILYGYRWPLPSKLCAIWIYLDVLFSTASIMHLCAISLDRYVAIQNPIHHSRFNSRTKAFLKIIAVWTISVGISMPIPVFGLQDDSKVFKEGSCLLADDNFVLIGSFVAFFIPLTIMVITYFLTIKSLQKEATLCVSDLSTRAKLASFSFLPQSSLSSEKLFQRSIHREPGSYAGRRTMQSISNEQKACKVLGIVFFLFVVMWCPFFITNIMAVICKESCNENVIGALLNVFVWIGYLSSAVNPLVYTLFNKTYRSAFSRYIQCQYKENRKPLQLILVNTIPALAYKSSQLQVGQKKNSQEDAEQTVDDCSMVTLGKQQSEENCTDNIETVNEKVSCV

For `COc1ccc2c(c1)cc1n2CCNC1`, which Ki is on record?
Its Ki is 9.93 µM.
